Like-named read-outs stand apart in the source and are kept apart here.
Key:
[1] = assay type: physicochemical; details: stored at room temperature (21-25° C.)
Protocol: At each time period, 0.05 g of powder was dissolved in 10 ml-15 of ethanol, diluted to fall within the analytical range, and injected into the LCMSMS for analysis.

[2] = Stability of cannabinoid and Vitamin E components of Beverage 2 (AB Red) stored at 8° C. and 21-25° C., LCMSMS over 570 days

With `Cc1c(C)c2c(c(C)c1O)CC[C@@](C)(CCC[C@H](C)CCC[C@H](C)CCCC(C)C)O2` [α-Tocopherol] the “Stability in Powder Concentrate (content by LCMSMS)” value (“Stability in Powder Concentrate” for short) ([1]; day 0) was 4.85 mg/g powder, the “Stability in Powder Concentrate” value ([1]; day 1) was 4.89 mg/g powder and the “Stability in Powder Concentrate” value ([1]; day 2) was 4.79 mg/g powder. The “Stability in Powder Concentrate” value ([1]; day 3) was 4.69 mg/g powder, the “Stability in Powder Concentrate” value ([1]; day 5) was 4.99 mg/g powder and the “Stability in Powder Concentrate” value ([1]; day 8) was 4.69 mg/g powder. The “Stability in Powder Concentrate” value ([1]; day 9) was 4.75 mg/g powder, the “Stability in Powder Concentrate” value ([1]; day 10) was 4.77 mg/g powder and the “Stability in Powder Concentrate” value ([1]; day 11) was 5.04 mg/g powder. The “Stability in Powder Concentrate” value ([1]; day 12) was 5.01 mg/g powder, the “Stability in Powder Concentrate” value ([1]; day 15) was 5.07 mg/g powder and the “Stability in Powder Concentrate” value ([1]; day 16) was 4.96 mg/g powder. The “Stability in Powder Concentrate” value ([1]; day 17) was 4.94 mg/g powder, the “Stability in Powder Concentrate” value ([1]; day 18) was 4.77 mg/g powder and the “Stability in Powder Concentrate” value ([1]; day 19) was 5.04 mg/g powder. The “Stability in Powder Concentrate” value ([1]; day 22) was 4.94 mg/g powder, the “Stability in Powder Concentrate” value ([1]; day 23) was 4.91 mg/g powder and the “Stability in Powder Concentrate” value ([1]; day 24) was 5.00 mg/g powder. For the same compound, the “Stability in Powder Concentrate” value ([1]; day 25) was 5.06 mg/g powder, the “Stability in Powder Concentrate” value ([1]; day 26) was 4.84 mg/g powder and the “Stability in Powder Concentrate” value ([1]; day 29) was 4.85 mg/g powder. For the same compound, the “Stability in Powder Concentrate” value ([1]; day 30) was 4.83 mg/g powder, the “Stability in Powder Concentrate” value ([1]; day 60) was 4.91 mg/g powder and the “Stability in Powder Concentrate” value ([1]; day 90) was 4.96 mg/g powder. For the same compound, the “Stability in Powder Concentrate” value ([1]; day 120) was 4.93 mg/g powder, the “Stability in Powder Concentrate” value ([1]; day 150) was 4.69 mg/g powder and the “Stability in Powder Concentrate” value ([1]; day 180) was 4.70 mg/g powder. The “Stability in Powder Concentrate” value ([1]; day 210) was 4.84 mg/g powder, the “Stability in Powder Concentrate” value ([1]; day 240) was 5.03 mg/g powder and the “Stability in Powder Concentrate” value ([1]; day 270) was 4.78 mg/g powder. For the same compound, the “Stability in Powder Concentrate” value ([1]; day 300) was 4.81 mg/g powder, the “Stability in Powder Concentrate” value ([1]; day 330) was 4.81 mg/g powder and the “Stability in Powder Concentrate” value ([1]; day 360) was 4.83 mg/g powder. The “Stability in Powder Concentrate” value ([1]; day 390) was 4.91 mg/g powder, the “Stability in Powder Concentrate” value ([1]; day 420) was 4.69 mg/g powder and the “Stability in Powder Concentrate” value ([1]; day 450) was 5.00 mg/g powder. For the same compound, the “Stability in Powder Concentrate” value ([1]; day 480) was 4.98 mg/g powder, the “Stability in Powder Concentrate” value ([1]; day 510) was 5.02 mg/g powder and the “Stability in Powder Concentrate” value ([1]; day 540) was 5.03 mg/g powder. For the same compound, the “Stability in Powder Concentrate” value ([1]; day 570) was 4.72 mg/g powder, the “Stability of Vitamin Es in AB Red” value ([2]; 8° C., 0 days) was 25.3 µg/mL and the “Stability of Vitamin Es in AB Red” value ([2]; 8° C., 1 days) was 25.2 µg/mL. For the same compound, the “Stability of Vitamin Es in AB Red” value ([2]; 8° C., 2 days) was 24.9 µg/mL, the “Stability of Vitamin Es in AB Red” value ([2]; 8° C., 3 days) was 25.3 µg/mL and the “Stability of Vitamin Es in AB Red” value ([2]; 8° C., 5 days) was 24.2 µg/mL. For the same compound, the “Stability of Vitamin Es in AB Red” value ([2]; 8° C., 8 days) was 23.7 µg/mL, the “Stability of Vitamin Es in AB Red” value ([2]; 8° C., 9 days) was 24.6 µg/mL and the “Stability of Vitamin Es in AB Red” value ([2]; 8° C., 10 days) was 24.9 µg/mL. For the same compound, the “Stability of Vitamin Es in AB Red” value ([2]; 8° C., 11 days) was 23.9 µg/mL, the “Stability of Vitamin Es in AB Red” value ([2]; 8° C., 12 days) was 24.4 µg/mL and the “Stability of Vitamin Es in AB Red” value ([2]; 8° C., 15 days) was 25.6 µg/mL. The “Stability of Vitamin Es in AB Red” value ([2]; 8° C., 16 days) was 24.5 µg/mL, the “Stability of Vitamin Es in AB Red” value ([2]; 8° C., 17 days) was 23.6 µg/mL and the “Stability of Vitamin Es in AB Red” value ([2]; 8° C., 18 days) was 24.1 µg/mL. For the same compound, the “Stability of Vitamin Es in AB Red” value ([2]; 8° C., 19 days) was 24.0 µg/mL, the “Stability of Vitamin Es in AB Red” value ([2]; 8° C., 22 days) was 25.0 µg/mL and the “Stability of Vitamin Es in AB Red” value ([2]; 8° C., 23 days) was 23.2 µg/mL. For the same compound, the “Stability of Vitamin Es in AB Red” value ([2]; 8° C., 24 days) was 24.3 µg/mL, the “Stability of Vitamin Es in AB Red” value ([2]; 8° C., 25 days) was 23.6 µg/mL and the “Stability of Vitamin Es in AB Red” value ([2]; 8° C., 26 days) was 25.2 µg/mL. The “Stability of Vitamin Es in AB Red” value ([2]; 8° C., 29 days) was 23.5 µg/mL, the “Stability of Vitamin Es in AB Red” value ([2]; 8° C., 30 days) was 24.2 µg/mL and the “Stability of Vitamin Es in AB Red” value ([2]; 8° C., 60 days) was 24.2 µg/mL. The “Stability of Vitamin Es in AB Red” value ([2]; 8° C., 90 days) was 23.1 µg/mL, the “Stability of Vitamin Es in AB Red” value ([2]; 8° C., 120 days) was 25.2 µg/mL and the “Stability of Vitamin Es in AB Red” value ([2]; 8° C., 150 days) was 25.4 µg/mL. For the same compound, the “Stability of Vitamin Es in AB Red” value ([2]; 8° C., 180 days) was 23.6 µg/mL, the “Stability of Vitamin Es in AB Red” value ([2]; 8° C., 210 days) was 23.5 µg/mL and the “Stability of Vitamin Es in AB Red” value ([2]; 8° C., 240 days) was 23.6 µg/mL. For the same compound, the “Stability of Vitamin Es in AB Red” value ([2]; 8° C., 270 days) was 23.6 µg/mL, the “Stability of Vitamin Es in AB Red” value ([2]; 8° C., 300 days) was 23.1 µg/mL and the “Stability of Vitamin Es in AB Red” value ([2]; 8° C., 330 days) was 22.9 µg/mL. The “Stability of Vitamin Es in AB Red” value ([2]; 8° C., 390 days) was 23.1 µg/mL, the “Stability of Vitamin Es in AB Red” value ([2]; 8° C., 420 days) was 22.3 µg/mL and the “Stability of Vitamin Es in AB Red” value ([2]; 8° C., 450 days) was 22.7 µg/mL. The “Stability of Vitamin Es in AB Red” value ([2]; 8° C., 480 days) was 21.8 µg/mL, the “Stability of Vitamin Es in AB Red” value ([2]; 8° C., 510 days) was 22.0 µg/mL and the “Stability of Vitamin Es in AB Red” value ([2]; 8° C., 540 days) was 21.8 µg/mL. For the same compound, the “Stability of Vitamin Es in AB Red” value ([2]; 8° C., 570 days) was 21.5 µg/mL, the “Stability of Vitamin Es in AB Red” value ([2]; 21-25° C., 0 days) was 25.3 µg/mL and the “Stability of Vitamin Es in AB Red” value ([2]; 21-25° C., 1 days) was 24.4 µg/mL. For the same compound, the “Stability of Vitamin Es in AB Red” value ([2]; 21-25° C., 2 days) was 24.1 µg/mL, the “Stability of Vitamin Es in AB Red” value ([2]; 21-25° C., 3 days) was 23.8 µg/mL and the “Stability of Vitamin Es in AB Red” value ([2]; 21-25° C., 5 days) was 22.9 µg/mL. The “Stability of Vitamin Es in AB Red” value ([2]; 21-25° C., 8 days) was 24.5 µg/mL, the “Stability of Vitamin Es in AB Red” value ([2]; 21-25° C., 9 days) was 23.3 µg/mL and the “Stability of Vitamin Es in AB Red” value ([2]; 21-25° C., 10 days) was 23.0 µg/mL. For the same compound, the “Stability of Vitamin Es in AB Red” value ([2]; 21-25° C., 11 days) was 24.4 µg/mL, the “Stability of Vitamin Es in AB Red” value ([2]; 21-25° C., 12 days) was 23.4 µg/mL and the “Stability of Vitamin Es in AB Red” value ([2]; 21-25° C., 15 days) was 24.8 µg/mL. The “Stability of Vitamin Es in AB Red” value ([2]; 21-25° C., 16 days) was 25.1 µg/mL, the “Stability of Vitamin Es in AB Red” value ([2]; 21-25° C., 17 days) was 24.4 µg/mL and the “Stability of Vitamin Es in AB Red” value ([2]; 21-25° C., 18 days) was 24.9 µg/mL. The “Stability of Vitamin Es in AB Red” value ([2]; 21-25° C., 19 days) was 25.4 µg/mL, the “Stability of Vitamin Es in AB Red” value ([2]; 21-25° C., 22 days) was 25.4 µg/mL and the “Stability of Vitamin Es in AB Red” value ([2]; 21-25° C., 23 days) was 24.6 µg/mL. The “Stability of Vitamin Es in AB Red” value ([2]; 21-25° C., 24 days) was 23.5 µg/mL, the “Stability of Vitamin Es in AB Red” value ([2]; 21-25° C., 25 days) was 25.5 µg/mL and the “Stability of Vitamin Es in AB Red” value ([2]; 21-25° C., 26 days) was 24.3 µg/mL. For the same compound, the “Stability of Vitamin Es in AB Red” value ([2]; 21-25° C., 29 days) was 24.4 µg/mL, the “Stability of Vitamin Es in AB Red” value ([2]; 21-25° C., 30 days) was 24.6 µg/mL and the “Stability of Vitamin Es in AB Red” value ([2]; 21-25° C., 60 days) was 24.4 µg/mL. For the same compound, the “Stability of Vitamin Es in AB Red” value ([2]; 21-25° C., 90 days) was 24.3 µg/mL, the “Stability of Vitamin Es in AB Red” value ([2]; 21-25° C., 120 days) was 23.7 µg/mL and the “Stability of Vitamin Es in AB Red” value ([2]; 21-25° C., 150 days) was 23.4 µg/mL. The “Stability of Vitamin Es in AB Red” value ([2]; 21-25° C., 180 days) was 23.3 µg/mL, the “Stability of Vitamin Es in AB Red” value ([2]; 21-25° C., 210 days) was 22.7 µg/mL and the “Stability of Vitamin Es in AB Red” value ([2]; 21-25° C., 240 days) was 23.1 µg/mL. The “Stability of Vitamin Es in AB Red” value ([2]; 21-25° C., 270 days) was 23.1 µg/mL, the “Stability of Vitamin Es in AB Red” value ([2]; 21-25° C., 300 days) was 23.5 µg/mL and the “Stability of Vitamin Es in AB Red” value ([2]; 21-25° C., 330 days) was 22.6 µg/mL. For the same compound, the “Stability of Vitamin Es in AB Red” value ([2]; 21-25° C., 390 days) was 22.7 µg/mL, the “Stability of Vitamin Es in AB Red” value ([2]; 21-25° C., 420 days) was 22.5 µg/mL and the “Stability of Vitamin Es in AB Red” value ([2]; 21-25° C., 450 days) was 22.3 µg/mL. The “Stability of Vitamin Es in AB Red” value ([2]; 21-25° C., 480 days) was 21.6 µg/mL, the “Stability of Vitamin Es in AB Red” value ([2]; 21-25° C., 510 days) was 21.4 µg/mL and the “Stability of Vitamin Es in AB Red” value ([2]; 21-25° C., 540 days) was 21.0 µg/mL. The “Stability of Vitamin Es in AB Red” value ([2]; 21-25° C., 570 days) was 21.4 µg/mL.
